In PubChem BioAssay AID228 (DTP/NCI, 2004):
Several values for one entry are separate records, joined by “and”; a condition that tells them apart may be missing. Equal entries are not always repeated. Records with an inconclusive call do not appear.

System: BDF1 mice, Friend leukemia sc, tumor weight T/C
Experiment: NCI In Vivo Anticancer Drug Screen. Data for tumor model Friend Virus Leukemia (Solid) (subcutaneous) in B6D2F1 (BDF1) mice
Conditions: endpoint: mean tumor weight, higher = larger tumour
Procedure: The antitumor activity of compounds was measured in mice bearing transplantable tumors. Survival or tumor size were measured and the results are expressed as the measurement made in the treated group (T) divided by the measurement made in the vehicle treated control group (C). The tumor model used in this assay is Friend Virus Leukemia (Solid) (subcutaneous) in B6D2F1 (BDF1) mice

[1] = dose: 25.0 mg/kg/injection, schedule: Q01DX011 (ip), vehicle: carboxymethylcellulose (CMC)
[2] = dose: 100.0 mg/kg/injection, schedule: Q01DX011 (ip), vehicle: carboxymethylcellulose (CMC)
[3] = dose: 12.0 mg/kg/injection, schedule: Q01DX011 (ip), vehicle: saline
[4] = dose: 50.0 mg/kg/injection, schedule: Q01DX011 (ip), vehicle: carboxymethylcellulose (CMC)
[5] = dose: 1.5 mg/kg/injection, schedule: Q01DX011 (ip), vehicle: carboxymethylcellulose (CMC)
[6] = dose: 3.0 mg/kg/injection, schedule: Q01DX011 (ip), vehicle: carboxymethylcellulose (CMC)
[7] = dose: 6.25 mg/kg/injection, schedule: Q01DX011 (ip), vehicle: carboxymethylcellulose (CMC)
[8] = dose: 12.5 mg/kg/injection, schedule: Q01DX011 (ip), vehicle: carboxymethylcellulose (CMC)

With `CC(C)CCCCCCCCCCCCC(=O)NCC(=O)NC1C(O)C(O)C(Nc2ncnc3nc[nH]c23)OC1C(O)CO` (stereo not drawn) the T/C (dose: 0.4 mg/kg/injection, schedule: Q01DX011 (ip), vehicle: carboxymethylcellulose (CMC)) was 93 % of control, the T/C (dose: 0.6 mg/kg/injection, schedule: Q01DX011 (ip), vehicle: carboxymethylcellulose (CMC)) was 83 % of control and the T/C (dose: 0.9 mg/kg/injection, schedule: Q01DX011 (ip), vehicle: carboxymethylcellulose (CMC)) was 52 % of control. The T/C (dose: 1.35 mg/kg/injection, schedule: Q01DX011 (ip), vehicle: carboxymethylcellulose (CMC)) was 50 % of control and the T/C (dose: 1.35 mg/kg/injection, schedule: Q01DX011 (ip), vehicle: saline) was 37 % of control.

`Nc1ccccc1N` was tested, and the T/C [1] was 84 % of control, the T/C [2] was 11 % of control and 13 % of control and 18 % of control and the T/C (dose: 150.0 mg/kg/injection, schedule: Q01DX011 (ip), vehicle: carboxymethylcellulose (CMC)) was 10 % of control.

`O=P(c1ccccc1)(N1CC1)N1CC1` was tested, and the T/C (dose: 6.0 mg/kg/injection, schedule: Q01DX011 (ip), vehicle: saline) was 106 % of control, the T/C [3] was 124 % of control and the T/C (dose: 24.0 mg/kg/injection, schedule: Q01DX011 (ip), vehicle: saline) was 80 % of control.

`Cc1ccc(N=NN(C)C)cc1` was tested, and the T/C [1] was 110 % of control, the T/C [4] was 90 % of control and the T/C [2] was 28 % of control.

For `CC(C)NCC(=O)c1ccc(O)c(O)c1`, the T/C (dose: 50.0 mg/kg/injection, schedule: Q01DX011 (ip), vehicle: saline) was 95 % of control, the T/C (dose: 100.0 mg/kg/injection, schedule: Q01DX011 (ip), vehicle: saline) was 110 % of control and the T/C (dose: 200.0 mg/kg/injection, schedule: Q01DX011 (ip), vehicle: saline) was 102 % of control.

`CCN(CC)c1ccc(/C=C/c2ccnc3ccccc23)cc1` was tested, and the T/C [5] was 202 % of control, the T/C [6] was 280 % of control and the T/C (dose: 12.0 mg/kg/injection, schedule: Q01DX011 (ip), vehicle: carboxymethylcellulose (CMC)) was 106 % of control.

With `O=C(N[C@H](CO)[C@H](O)c1ccc([N+](=O)[O-])cc1)C(Cl)Cl` the T/C (dose: 47.0 mg/kg/injection, schedule: Q01DX011 (ip), vehicle: carboxymethylcellulose (CMC)) was 105 % of control, the T/C (dose: 95.0 mg/kg/injection, schedule: Q01DX011 (ip), vehicle: carboxymethylcellulose (CMC)) was 98 % of control and the T/C (dose: 191.0 mg/kg/injection, schedule: Q01DX011 (ip), vehicle: carboxymethylcellulose (CMC)) was 77 % of control. For the same compound, the T/C (dose: 383.0 mg/kg/injection, schedule: Q01DX011 (ip), vehicle: carboxymethylcellulose (CMC)) was 108 % of control.

In the case of `C[C@]12CCC(=O)C=C1CC[C@@H]1[C@@H]2[C@@H](O)C[C@@]2(C)[C@H]1CC[C@]2(O)C(=O)COC(=O)CCC(=O)O`, the T/C (dose: 75.0 mg/kg/injection, schedule: Q01DX011 (sc), vehicle: steriod suspending solution) is reported as 52 % of control, the T/C (dose: 150.0 mg/kg/injection, schedule: Q01DX011 (sc), vehicle: steriod suspending solution) is reported as 49 % of control and the T/C (dose: 300.0 mg/kg/injection, schedule: Q01DX011 (sc), vehicle: steriod suspending solution) is reported as 27 % of control.

For `CC(/C=N\N=C(N)N)=N/N=C(N)N`, the T/C (dose: 5.7 mg/kg/injection, schedule: Q01DX011 (ip), vehicle: carboxymethylcellulose (CMC)) was 111 % of control, the T/C (dose: 11.5 mg/kg/injection, schedule: Q01DX011 (ip), vehicle: carboxymethylcellulose (CMC)) was 70 % of control and the T/C (dose: 23.0 mg/kg/injection, schedule: Q01DX011 (ip), vehicle: carboxymethylcellulose (CMC)) was 96 % of control.

For `CSc1ncc(Br)c(Sc2nc(N)nc3nc[nH]c23)n1`, the T/C (dose: 3.12 mg/kg/injection, schedule: Q01DX011 (ip), vehicle: carboxymethylcellulose (CMC)) was 92 % of control, the T/C [7] was 81 % of control and the T/C [8] was 51 % of control.

`CNS(=O)(=O)c1ncnc2nc[nH]c12` was tested, and the T/C (dose: 20.0 mg/kg/injection, schedule: Q01DX011 (ip), vehicle: carboxymethylcellulose (CMC)) was 94 % of control, the T/C (dose: 26.0 mg/kg/injection, schedule: Q01DX011 (ip), vehicle: carboxymethylcellulose (CMC)) was 86 % of control and the T/C (dose: 35.0 mg/kg/injection, schedule: Q01DX011 (ip), vehicle: carboxymethylcellulose (CMC)) was 96 % of control. For the same compound, the T/C (dose: 70.62 mg/kg/injection, schedule: Q01DX011 (ip), vehicle: carboxymethylcellulose (CMC)) was 43 % of control and the T/C (dose: 107.0 mg/kg/injection, schedule: Q01DX011 (ip), vehicle: carboxymethylcellulose (CMC)) was 49 % of control.

For `CC1(C)N=C(N)N=C(N)N1c1cccc(Br)c1`, the T/C [1] was 88 % of control.

With `O=P1(N(CCCl)CCCl)NCCCO1` (stereo not drawn) the T/C (dose: 0.5 mg/kg/injection, schedule: Q01DX015 (ip), vehicle: saline) was 183 % of control, the T/C (dose: 1.0 mg/kg/injection, schedule: Q01DX015 (ip), vehicle: saline) was 209 % of control and the T/C [5] was 93 % of control. For the same compound, the T/C (dose: 2.0 mg/kg/injection, schedule: Q01DX015 (ip), vehicle: saline) was 224 % of control, the T/C [6] was 81 % of control and the T/C (dose: 3.0 mg/kg/injection, schedule: Q01DX015 (ip), vehicle: saline) was 224 % of control. For the same compound, the T/C (dose: 4.0 mg/kg/injection, schedule: Q01DX015 (ip), vehicle: saline) was 225 % of control, the T/C (dose: 6.0 mg/kg/injection, schedule: Q01DX011 (ip), vehicle: carboxymethylcellulose (CMC)) was 89 % of control and the T/C (dose: 6.2 mg/kg/injection, schedule: Q01DX011 (ip), vehicle: saline) was 117 % of control. The T/C [7] was 28 % of control, the T/C (dose: 7.12 mg/kg/injection, schedule: Q01DX011 (ip), vehicle: saline) was 105 % of control and the T/C (dose: 8.0 mg/kg/injection, schedule: Q01DX011 (ip), vehicle: saline) was 101 % of control. For the same compound, the T/C [3] was 58 % of control, the T/C [8] was 37 % of control and the T/C (dose: 12.5 mg/kg/injection, schedule: Q01DX011 (ip), vehicle: saline) was 64 % of control. The T/C (dose: 14.25 mg/kg/injection, schedule: Q01DX011 (ip), vehicle: saline) was 52 % of control, the T/C (dose: 23.0 mg/kg/injection, schedule: Q01DX011 (ip), vehicle: saline) was 14 % of control and the T/C (dose: 25.0 mg/kg/injection, schedule: Q01DX011 (ip), vehicle: saline) was 14 % of control. For the same compound, the T/C (dose: 28.5 mg/kg/injection, schedule: Q01DX011 (ip), vehicle: saline) was 32 % of control, the T/C (dose: 29.0 mg/kg/injection, schedule: Q01DX011 (ip), vehicle: saline) was 6 % of control and the T/C [4] was 7 % of control and 10 % of control and 11 % of control.

For `O=C(COc1cc(Cl)c(Cl)cc1Cl)OCCOc1cc(Cl)c(Cl)cc1Cl`, the T/C (dose: 11.25 mg/kg/injection, schedule: Q01DX011 (ip), vehicle: carboxymethylcellulose (CMC)) was 91 % of control, the T/C (dose: 22.5 mg/kg/injection, schedule: Q01DX011 (ip), vehicle: carboxymethylcellulose (CMC)) was 112 % of control and the T/C (dose: 45.0 mg/kg/injection, schedule: Q01DX011 (ip), vehicle: carboxymethylcellulose (CMC)) was 117 % of control. The T/C (dose: 90.0 mg/kg/injection, schedule: Q01DX011 (ip), vehicle: carboxymethylcellulose (CMC)) was 65 % of control.

For `CN(C)c1ccc(C(=C(c2ccc(N(C)C)cc2)c2ccc(N(C)C)cc2)c2ccc(N(C)C)cc2)cc1`, the T/C (dose: 3.0 mg/kg/injection, schedule: Q01DX011 (ip), vehicle: olive oil, sesame oil, peanut oil) was 179 % of control, the T/C (dose: 6.0 mg/kg/injection, schedule: Q01DX011 (ip), vehicle: olive oil, sesame oil, peanut oil) was 178 % of control and 237 % of control and the T/C (dose: 12.5 mg/kg/injection, schedule: Q01DX011 (ip), vehicle: olive oil, sesame oil, peanut oil) was 178 % of control. For the same compound, the T/C (dose: 50.0 mg/kg/injection, schedule: Q01DX011 (ip), vehicle: olive oil, sesame oil, peanut oil) was 65 % of control and 63 % of control, the T/C (dose: 200.0 mg/kg/injection, schedule: Q01DX011 (ip), vehicle: olive oil, sesame oil, peanut oil) was 55 % of control and the T/C (dose: 300.0 mg/kg/injection, schedule: Q01DX011 (ip), vehicle: olive oil, sesame oil, peanut oil) was 82 % of control. The T/C (dose: 400.0 mg/kg/injection, schedule: Q01DX011 (ip), vehicle: olive oil, sesame oil, peanut oil) was 80 % of control.

For `CN(Cc1cnc2nc(N)nc(N)c2n1)c1ccc(C(=O)N[C@@H](CCC(=O)O)C(=O)O)cc1`, the T/C (dose: 0.37 mg/kg/injection, schedule: Q01DX011 (ip), vehicle: saline) was 68 % of control, the T/C (dose: 0.5 mg/kg/injection, schedule: Q01DX011 (ip), vehicle: carboxymethylcellulose (CMC)) was 44 % of control and the T/C (dose: 0.75 mg/kg/injection, schedule: Q01DX011 (ip), vehicle: saline) was 91 % of control. For the same compound, the T/C (dose: 0.8 mg/kg/injection, schedule: Q01DX011 (ip), vehicle: carboxymethylcellulose (CMC)) was 71 % of control and 88 % of control, the T/C (dose: 1.4 mg/kg/injection, schedule: Q01DX011 (ip), vehicle: carboxymethylcellulose (CMC)) was 36 % of control and the T/C [5] was 16 % of control. The T/C (dose: 1.5 mg/kg/injection, schedule: Q01DX011 (ip), vehicle: saline) was 49 % of control.
